In ChEMBL document CHEMBL3817805, “Benzamide capped peptidomimetics as non-ATP competitive inhibitors of CDK2 using the REPLACE strategy” (Bioorg Med Chem Lett, 2016):
pIC50: −log10 of the molar value. Residues, ends and D or L forms follow the SMILES beside them.

Experiments:
CDK2/Cyclin A2 = CDK2/Cyclin A2 (Homo sapiens, UniProt P24941); test: Inhibition of recombinant human CDK2/cyclin A2 using fluoresceinyl-Ahx-Pro-Val-Lys-Arg-Arg-Leu-Phe-Gly as substrate incubated for 45 mins by fluorescence polarization assay; assay type: protein-complex assay
[1] = molecular target: Cyclin-dependent kinase 4/cyclin D1 (Homo sapiens, UniProt P24385); test: Inhibition of recombinant human CDK4/cyclin D1 using fluoresceinyl-AhxPro-Val-Lys-Arg-Arg-Leu-(3ClPhe)-Gly as substrate incubated for 45 mins by fluorescence polarization assay; assay type: protein-complex assay
U2OS = test: Antiproliferative activity against human U2OS cells incubated for 72 hrs by MTT assay; assay type: functional, cell-based
[2] = Antiproliferative activity against human DU145 cells incubated for 72 hrs by MTT assay; assay type: functional, cell-based; settings: DU-145, 72 h

Cyclin-dependent kinase 4/cyclin D1, sequence (P11802 whole entry): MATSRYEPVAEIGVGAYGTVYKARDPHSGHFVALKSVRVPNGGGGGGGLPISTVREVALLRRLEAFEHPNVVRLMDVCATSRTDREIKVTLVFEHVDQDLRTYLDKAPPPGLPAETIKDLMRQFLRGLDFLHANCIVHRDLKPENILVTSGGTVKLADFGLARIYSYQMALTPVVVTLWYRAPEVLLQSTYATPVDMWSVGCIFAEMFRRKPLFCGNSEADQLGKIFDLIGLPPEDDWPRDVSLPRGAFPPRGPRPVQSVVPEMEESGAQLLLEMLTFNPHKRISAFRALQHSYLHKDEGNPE
Cyclin-dependent kinase 4/cyclin D1, sequence (P24385 whole entry): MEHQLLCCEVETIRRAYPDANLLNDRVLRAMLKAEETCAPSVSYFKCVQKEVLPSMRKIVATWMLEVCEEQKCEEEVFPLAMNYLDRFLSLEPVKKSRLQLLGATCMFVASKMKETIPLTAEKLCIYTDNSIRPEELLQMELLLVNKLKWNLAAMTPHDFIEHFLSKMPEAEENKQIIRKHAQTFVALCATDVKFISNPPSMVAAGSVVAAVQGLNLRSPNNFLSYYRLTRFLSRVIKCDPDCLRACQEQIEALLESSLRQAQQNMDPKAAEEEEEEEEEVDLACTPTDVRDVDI

In the case of `CC(C)CC(CC(=O)N(C)[C@@H](Cc1ccccc1)C(N)=O)NC(=O)[C@H](CCCNC(=N)N)NC(=O)c1ccc(CN2CCN(C3CCN(C)CC3)CC2)cc1` (stereo partly drawn), the pIC50 (CDK2/Cyclin A2) was 5.08 and the pIC50 [1] was 4.31.
Work on `CC[C@H](C)[C@H](NC(=O)[C@H](CC(C)C)NC(=O)[C@H](CCCNC(=N)N)NC(=O)c1ccc(CN2CCNCC2)cc1)C(=O)N[C@@H](Cc1ccccc1)C(=O)O` (HELM PEPTIDE1{[O=C(c1ccc(CN2CCNCC2)cc1)[*:2]].R.L.I.F}$$$$V2.0) yielded a pIC50 (CDK2/Cyclin A2) of 4.89 and a pIC50 [1] of 4.93.
Molecule `CC[C@H](C)[C@H](NC(=O)[C@H](CC(C)C)NC(=O)[C@H](CCCNC(=N)N)NC(=O)c1ccc(N2CCNCC2)cc1)C(=O)N[C@@H](Cc1ccccc1)C(=O)O` (HELM PEPTIDE1{[O=C(c1ccc(N2CCNCC2)cc1)[*:2]].R.L.I.F}$$$$V2.0) has a pIC50 [1] of 4.62.
With `CC(C)CC(CC(=O)NC(Cc1ccsc1)C(N)=O)NC(=O)[C@H](CCCNC(=N)N)NC(=O)c1ccc(C=C2CCNCC2)cc1` (stereo partly drawn) the pIC50 (CDK2/Cyclin A2) was 5.04 and the pIC50 [1] was < 4.00.
In the case of `CC(C)CC(CC(=O)N(C)[C@@H](Cc1ccccc1)C(N)=O)NC(=O)[C@H](CCCNC(=N)N)NC(=O)c1ccc(CN2CCNC[C@@H]2C)cc1` (stereo partly drawn), the pIC50 (CDK2/Cyclin A2) was 4.87, the pIC50 [1] was < 4.00 and the pIC50 (U2OS) was 3.64. For the same molecule, the pIC50 [2] was 3.69.
Molecule `CC(C)C[C@H](NC(=O)[C@H](CCCNC(=N)N)NC(=O)c1ccc(CNC(=N)N)cc1)C(=O)N[C@@H](CC(N)=O)C(=O)N1CCC[C@@H]1C(=O)N[C@H](Cc1ccccc1)C(=O)N[C@@H](Cc1ccccc1)C(=O)O` has a pIC50 (CDK2/Cyclin A2) of 6.16 and a pIC50 [1] of 4.81.
For `CCN1CCN(Cc2ccc(C(=O)N[C@@H](CCCNC(=N)N)C(=O)NC(CC(=O)NC(Cc3ccsc3)C(N)=O)CC(C)C)cc2)CC1` (stereo partly drawn), the pIC50 (CDK2/Cyclin A2) was 4.76 and the pIC50 [1] was 4.13.
Molecule `CC(C)CC(CC(=O)N(C)[C@@H](Cc1ccccc1)C(N)=O)NC(=O)[C@H](CCCNC(=N)N)NC(=O)c1ccc(CN2CCNC[C@H]2C)cc1` (stereo partly drawn) has a pIC50 (CDK2/Cyclin A2) of 4.65 and a pIC50 [1] of 4.34.
In the case of `CC(C)CC(CC(=O)NC(Cc1ccsc1)C(N)=O)NC(=O)[C@H](CCCNC(=N)N)NC(=O)c1ccc(C=C2CCN(C)CC2)cc1` (stereo partly drawn), the pIC50 (CDK2/Cyclin A2) was 4.58 and the pIC50 [1] was 4.16.
`CCCN1CCN(Cc2ccc(C(=O)N[C@@H](CCCNC(=N)N)C(=O)NC(CC(=O)NC(Cc3ccsc3)C(N)=O)CC(C)C)cc2)CC1` (stereo partly drawn) showed a pIC50 (CDK2/Cyclin A2) of 4.50 and a pIC50 [1] of 5.07.
With `CC(C)CC(CC(=O)NC(Cc1ccsc1)C(N)=O)NC(=O)[C@H](CCCNC(=N)N)NC(=O)c1ccc(CN2CCNC[C@@H]2C)c(O)c1` (stereo partly drawn) the pIC50 (CDK2/Cyclin A2) was 4.88.
For `CC(C)CC(CC(=O)NC(Cc1ccsc1)C(N)=O)NC(=O)[C@H](CCCNC(=N)N)NC(=O)c1ccc(CN(C)C2CCNCC2)cc1` (stereo partly drawn), the pIC50 (CDK2/Cyclin A2) was < 4.30.
For `CC(C)CC(CC(=O)NC(Cc1ccsc1)C(N)=O)NC(=O)[C@H](CCCNC(=N)N)NC(=O)c1cc(OC2CCNCC2)cc(OC2CCNCC2)c1` (stereo partly drawn), the pIC50 (CDK2/Cyclin A2) was < 4.52.
Work on `CCOc1cc(C(=O)N[C@@H](CCCNC(=N)N)C(=O)N[C@@H](CC(C)C)C(=O)N[C@H](C(=O)N[C@@H](Cc2ccccc2)C(=O)O)[C@@H](C)CC)ccc1CN1CCNCC1` (HELM PEPTIDE1{[CCOc1cc(C(=O)[*:2])ccc1CN1CCNCC1].R.L.I.F}$$$$V2.0) yielded a pIC50 (CDK2/Cyclin A2) of 5.23 and a pIC50 [1] of 5.29.
In the case of `CC(C)CC(CC(=O)N(C)[C@@H](Cc1ccccc1)C(N)=O)NC(=O)[C@H](CCCNC(=N)N)NC(=O)c1ccc(CN2CCNCC2)c(O)c1` (stereo partly drawn), the pIC50 (CDK2/Cyclin A2) was 5.13 and the pIC50 [1] was 4.93.
For `CC[C@H](C)[C@H](NC(=O)[C@H](CC(C)C)NC(=O)[C@H](CCCNC(=N)N)NC(=O)c1ccc(CN2CCN(C)CC2)cc1)C(=O)N[C@@H](Cc1ccccc1)C(=O)O` (HELM PEPTIDE1{[CN1CCN(Cc2ccc(C(=O)[*:2])cc2)CC1].R.L.I.F}$$$$V2.0), the pIC50 (CDK2/Cyclin A2) was 5.10 and the pIC50 [1] was 4.95.
`CC(C)C[C@H](NC(=O)[C@H](CCCNC(=N)N)NC(=O)c1ccc(CN2CCNCC2)cc1)C(=O)N[C@@H](CC(N)=O)C(=O)N1CCC[C@@H]1C(=O)N[C@H](Cc1ccccc1)C(=O)N[C@@H](Cc1ccccc1)C(=O)O` gave a pIC50 (CDK2/Cyclin A2) of 5.28 and a pIC50 [1] of 4.89.
For `CCCN1CCN(Cc2ccc(C(=O)N[C@@H](CCCNC(=N)N)C(=O)NC(CC(=O)NC(Cc3ccsc3)C(N)=O)CC(C)C)cc2)[C@@H](C)C1` (stereo partly drawn), the pIC50 (CDK2/Cyclin A2) was 4.65 and the pIC50 [1] was 5.03.
Molecule `CC(C)CC(CC(=O)N(C)[C@@H](Cc1ccccc1)C(N)=O)NC(=O)[C@H](CCCNC(=N)N)NC(=O)c1ccc(OC2CCNCC2)cc1` (stereo partly drawn) has a pIC50 (CDK2/Cyclin A2) of 4.39 and a pIC50 [1] of 4.51.
Work on `CCN1CCN(Cc2ccc(C(=O)N[C@@H](CCCNC(=N)N)C(=O)NC(CC(=O)NC(Cc3ccsc3)C(N)=O)CC(C)C)cc2)[C@@H](C)C1` (stereo partly drawn) yielded a pIC50 (CDK2/Cyclin A2) of 5.17 and a pIC50 [1] of 4.34.
For `CC[C@H](C)[C@H](NC(=O)[C@H](CC(C)C)NC(=O)[C@H](C)NC(=O)c1ccc(CN2CCNCC2)cc1)C(=O)N[C@@H](Cc1ccccc1)C(=O)O` (HELM PEPTIDE1{[O=C(c1ccc(CN2CCNCC2)cc1)[*:2]].A.L.I.F}$$$$V2.0), the pIC50 (CDK2/Cyclin A2) was < 4.00 and the pIC50 [1] was 4.29.
For `CCOc1cc(C(=O)N[C@@H](CCCNC(=N)N)C(=O)NC(CC(=O)N(C)[C@@H](Cc2ccccc2)C(N)=O)CC(C)C)ccc1CN1CCNCC1` (stereo partly drawn), the pIC50 (CDK2/Cyclin A2) was 4.65 and the pIC50 [1] was 4.73.
In the case of `CC(C)CC(CC(=O)NC(Cc1ccsc1)C(N)=O)NC(=O)[C@H](CCCNC(=N)N)NC(=O)c1ccc(CC2CCNCC2)cc1` (stereo partly drawn), the pIC50 (CDK2/Cyclin A2) was < 4.52.
`CC(C)CC(CC(=O)NC(Cc1ccsc1)C(N)=O)NC(=O)[C@H](CCCNC(=N)N)NC(=O)c1ccc(CN(C)C2CCCNC2)cc1` (stereo partly drawn) gave a pIC50 (CDK2/Cyclin A2) of 4.51 and a pIC50 (U2OS) of 3.82.
Molecule `CC[C@H](C)[C@H](NC(=O)[C@H](CC(C)C)NC(=O)[C@H](CCCNC(=N)N)NC(=O)c1ccc(CN2CCNCC2)c(O)c1)C(=O)N[C@@H](Cc1ccccc1)C(=O)O` (HELM PEPTIDE1{[O=C(c1ccc(CN2CCNCC2)c(O)c1)[*:2]].R.L.I.F}$$$$V2.0) has a pIC50 (CDK2/Cyclin A2) of 5.34 and a pIC50 [1] of 4.98.
With `CC(C)CC(CC(=O)NC(Cc1ccsc1)C(N)=O)NC(=O)[C@H](CCCNC(=N)N)NC(=O)c1ccc(CNC2CCNCC2)cc1` (stereo partly drawn) the pIC50 (CDK2/Cyclin A2) was < 4.00.
